Data taken from patent US7109193B2, “Tricyclic diazepines tocolytic oxytocin receptor antagonists” (Wyeth, priority 2001, dated 2006).

Target: T1, human oxytocin receptor (Homo sapiens, UniProt P30559)
T1 construct: host or cells: CHO cells (pcDNA3.1 vector)
T1 sequence (P30559 1-389): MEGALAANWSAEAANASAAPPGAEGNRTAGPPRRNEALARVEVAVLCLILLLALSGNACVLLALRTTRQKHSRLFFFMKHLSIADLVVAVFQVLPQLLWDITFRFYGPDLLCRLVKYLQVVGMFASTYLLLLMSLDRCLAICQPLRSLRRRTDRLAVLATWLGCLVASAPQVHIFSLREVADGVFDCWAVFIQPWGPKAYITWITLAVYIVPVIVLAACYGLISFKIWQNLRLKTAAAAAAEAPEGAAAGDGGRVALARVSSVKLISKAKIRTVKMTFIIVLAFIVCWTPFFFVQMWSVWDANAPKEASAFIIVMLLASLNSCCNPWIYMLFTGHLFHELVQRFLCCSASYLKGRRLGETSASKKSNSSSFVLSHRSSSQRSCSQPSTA
Assay: Oxytocin binding in Chinese Hamster Ovary cell membranes expressing human oxytocin receptors
Conditions: 100 nM, CHO cell membranes, [3H]oxytocin, values without parentheses, read-out: OT % inhibition @ 100% nM

inhibition at 0.1 µM [%] | Compound
20 | O=C(NCCN1CCCCC1)c1ccc2n1Cc1ccccc1N(C(=O)c1ccc(-c3cccc4ccccc34)cc1Cl)C2 [Example 160, 10-[2-Chloro-4-(1-naphthyl)benzoyl]-N-[2-(1-piperidinyl)ethyl]-10,11-dihydro-5H-pyrrolo[2,1-c][1,4]benzodiazepine-3-carboxamide]
72 | COc1ccccc1-c1ccc(C(=O)N2Cc3ccc(C(=O)N4CCN(CCN(C)C)CC4)n3Cc3ccccc32)cc1OC [Example 204, {10-[(2,2′-Dimethoxy[1,1′-biphenyl]-4-yl)carbonyl]-10,11-dihydro-5H-pyrrolo[2,1-c][1,4]benzodiazepin-3-yl}{4-[2-(dimethylamino)ethyl]-1-piperazinyl}methanone]
88 | COc1cccc(-c2ccc(C(=O)N3Cc4ccc(C(=O)N(C)C5CCN(C)CC5)n4Cc4ccccc43)cc2C)c1 [Example 176, 10-[(3′-Methoxy-2-methyl[1,1′-biphenyl]-4-yl)carbonyl]-N-methyl-N-(1-methyl-4-piperidinyl)-10,11-dihydro-5H-pyrrolo[2,1-c][1,4]benzodiazepine-3-carboxamide]
47 | COc1cccc(-c2ccc(C(=O)N3Cc4ccc(C(=O)NCCC5CCCN5C)n4Cc4ccccc43)cc2OC)c1 (stereo not shown) [Example 172, 10-[(2,3′-Dimethoxy[1,1′-biphenyl]-4-yl)carbonyl]-N-[2-(1-methyl-2-pyrrolidinyl)ethyl]-10,11-dihydro-5H-pyrrolo[2,1-c][1,4]benzodiazepine-3-carboxamide]
71 | COc1ccccc1-c1ccc(C(=O)N2Cc3ccc(C(=O)NCCC4CCCN4C)n3Cc3ccccc32)cc1C (stereo not shown) [Example 162, 10-[(2′-Methoxy-2-methyl[1,1′-biphenyl]-4-yl)carbonyl]-N-[2-(1-methyl-2-pyrrolidinyl)ethyl]-10,11-dihydro-5H-pyrrolo[2,1-c][1,4]benzodiazepine-3-carboxamide]
36 | COc1cccc(-c2cc(OC)c(C(=O)N3Cc4ccc(C(=O)NCCC5CCCN5C)n4Cc4ccccc43)cc2Cl)c1 (stereo not shown) [Example 169, 10-[(6-Chloro-3,3′-dimethoxy[1,1′-biphenyl]-4-yl)carbonyl]-N-[2-(1-methyl-2-pyrrolidinyl)ethyl]-10,11-dihydro-5H-pyrrolo[2,1-c][1,4]benzodiazepine-3-carboxamide]
50 | COc1cccc(-c2ccc(C(=O)N3Cc4ccc(C(=O)NCCN5CCCCC5)n4Cc4ccccc43)cc2OC)c1 [Example 159, 10-[(2,3′-Dimethoxy[1,1′-biphenyl]-4-yl)carbonyl]-N-[2-(1-piperidinyl)ethyl]-10,11-dihydro-5H-pyrrolo[2,1-c][1,4]benzodiazepine-3-carboxamide]
52 | COc1cc(-c2ccccc2C)c(Cl)cc1C(=O)N1Cc2ccc(C(=O)NCCC3CCCN3C)n2Cc2ccccc21 (stereo not shown) [Example 168, 10-[(6-Chloro-3-methoxy-2′-methyl[1,1′-biphenyl]-4-yl)carbonyl]-N-[2-(1-methyl-2-pyrrolidinyl)ethyl]-10,11-dihydro-5H-pyrrolo[2,1-c][1,4]benzodiazepine-3-carboxamide]
38 | COc1cc(C(=O)N2Cc3ccc(C(=O)NCCN4CCCCC4)n3Cc3ccccc32)ccc1-c1cccc2ccccc12 [Example 157, 10-[3-Methoxy-4-(1-naphthyl)benzoyl]-N-[2-(1-piperidinyl)ethyl]-10,11-dihydro-5H-pyrrolo[2,1-c][1,4]benzodiazepine-3-carboxamide]
47 | COc1cc(C(=O)N2Cc3ccc(C(=O)NCCC4CCCN4C)n3Cc3ccccc32)ccc1-c1cccc2ccccc12 (stereo not shown) [Example 170, 10-[3-Methoxy-4-(1-naphthyl)benzoyl]-N-[2-(1-methyl-2-pyrrolidinyl)ethyl]-10,11-dihydro-5H-pyrrolo[2,1-c][1,4]benzodiazepine-3-carboxamide]
98 | COc1ccccc1-c1ccc(C(=O)N2Cc3ccc(C(=O)N(C)C4CCN(C)CC4)n3Cc3ccccc32)cc1C [Example 175, 10-[(2′-Methoxy-2-methyl[1,1′-biphenyl]-4-yl)carbonyl]-N-methyl-N-(1-methyl-4-piperidinyl)-10,11-dihydro-5H-pyrrolo[2,1-c][1,4]benzodiazepine-3-carboxamide]
69 | C=CCN1CCN(C(=O)c2ccc3n2Cc2ccccc2N(C(=O)c2ccc(-c4ccccc4OC)c(OC)c2)C3)CC1 [Example 227, (4-Allyl-1-piperazinyl){10-[(2,2′-dimethoxy[1,1′-biphenyl]-4-yl)carbonyl]-10,11-dihydro-5H -pyrrolo[2,1-c][1,4]benzodiazepin-3-yl}methanone]
91 | COc1cc(C(=O)N2Cc3ccc(C(=O)N(C)C4CCN(C)C4)n3Cc3ccccc32)ccc1-c1cccc2ccccc12 (stereo not shown) [Example 192, 10-[3-Methoxy-4-(1-naphthyl)benzoyl]-N-methyl-N-(1-methyl-3-pyrrolidinyl)-10,11-dihydro-5H-pyrrolo[2,1-c][1,4]benzodiazepine-3-carboxamide]

Second part, the molecule before the results:

Compound | inhibition at 0.1 µM [%]
Cc1cc(C(=O)N2Cc3ccc(C(=O)N4CCN(C(C)C)CC4)n3Cc3ccccc32)ccc1-c1ccccc1C(F)(F)F [Example 240, (4-Isopropyl-1-piperazinyl)(10-{[2-methyl-2′-(trifluoromethyl)[1,1′-biphenyl]-4-yl]carbonyl}-10,11-dihydro-5H-pyrrolo[2,1-c][1,4]benzodiazepin-3-yl)methanone] | 62
C=CCN1CCN(C(=O)c2ccc3n2Cc2ccccc2N(C(=O)c2ccc(-c4cccc5ccccc45)c(OC)c2)C3)CC1 [Example 231, (4-Allyl-1-piperazinyl){10-[3-methoxy-4-(1-naphthyl)benzoyl]-10,11-dihydro-5H -pyrrolo[2,1-c][1,4]benzodiazepin-3-yl}methanone] | 63
C=CCN1CCN(C(=O)c2ccc3n2Cc2ccccc2N(C(=O)c2ccc(-c4cccc5ccccc45)cc2Cl)C3)CC1 [Example 229, (4-Allyl-1-piperazinyl){10-[2-chloro-4-(1-naphthyl)benzoyl]-10,11-dihydro-5H-pyrrolo[2,1-c][1,4]benzodiazepin-3-yl}methanone] | 19
C=CCN1CCN(C(=O)c2ccc3n2Cc2ccccc2N(C(=O)c2ccc(-c4ccccc4C)cc2)C3)CC1 [Example 224, (4-Allyl-1-piperazinyl){10-[(2′-methyl[1,1′-biphenyl]-4-yl)carbonyl]-10,11-dihydro-5H -pyrrolo[2,1-c][1,4]benzodiazepin-3-yl}methanone] | -3
CN(C)CCN1CCN(C(=O)c2ccc3n2Cc2ccccc2N(C(=O)c2ccc(-c4cccc5ccccc45)cc2Cl)C3)CC1 [Example 205, {10-[2-Chloro-4-(1-naphthyl)benzoyl]-10,11-dihydro-5H-pyrrolo[2,1-c][1,4]benzodiazepin-3-yl}{4-[2-(dimethylamino)ethyl]-1-piperazinyl}methanone] | 24
COc1ccccc1-c1ccc(C(=O)N2Cc3ccc(C(=O)N(C)C4CCN(C)C4)n3Cc3ccccc32)cc1 (stereo not shown) [Example 187, 10-[(2′-Methoxy[1,1′-biphenyl]-4-yl)carbonyl]-N-methyl-N-(1-methyl-3-pyrrolidinyl)-10,11-dihydro-5H-pyrrolo[2,1-c][1,4]benzodiazepine-3-carboxamide] | 100
COc1cc(C(=O)N2Cc3ccc(C(=O)N4CCN(CCN(C)C)CC4)n3Cc3ccccc32)ccc1-c1cccc2ccccc12 [Example 203, {4-[2-(Dimethylamino)ethyl]-1-piperazinyl}{10-[3-methoxy-4-(1-naphthyl)benzoyl]-10,11-dihydro-5H-pyrrolo[2,1-c][1,4]benzodiazepin-3-yl}methanone] | 62
Cc1ccccc1-c1ccc(C(=O)N2Cc3ccc(C(=O)N4CCN(CCN5CCOCC5)CC4)n3Cc3ccccc32)cc1 [Example 209, {10-[(2′-Methyl[1,1′-biphenyl]-4-yl)carbonyl]-10,11-dihydro-5H-pyrrolo[2,1-c][1,4]benzodiazepin-3-yl}{4-[2-(4-morpholinyl)ethyl]-1-piperazinyl}methanone] | 81
Cc1ccccc1-c1ccc(C(=O)N2Cc3ccc(C(=O)N(C)C4CCN(C)CC4)n3Cc3ccccc32)cc1 [Example 178, N-Methyl-10-[(2′-methyl[1,1′-biphenyl]-4-yl)carbonyl]-N-(1-methyl-4-piperidinyl)-10,11-dihydro-5H-pyrrolo[2,1-c][1,4]benzodiazepine-3-carboxamide] | 93
Cc1cc(C(=O)N2Cc3ccc(C(=O)N(C)C4CCN(C)CC4)n3Cc3ccccc32)ccc1-c1ccccc1C(F)(F)F [Example 184, N-Methyl-N-(1-methyl-4-piperidinyl)-10-{[2-methyl-2′-(trifluoromethyl)[1,1′-biphenyl]-4-yl]carbonyl}-10,11-dihydro-5H-pyrrolo[2,1-c][1,4]benzodiazepine-3-carboxamide] | 83
Cc1cc(C(=O)N2Cc3ccc(C(=O)N4CCN(C(=O)OC(C)(C)C)CC4)n3Cc3ccccc32)ccc1-c1ccccc1C(F)(F)F [Example 6, 4-[[10,11-Dihydro-10-[[2-methyl-2′-trifluoromethyl[1,1′-biphenyl]-4-yl]carbonyl]-5H-pyrrolo[2,1-c][1,4]benzodiazepin-3-yl]carbonyl]-1-piperazine-carboxylic acid, tert-butyl ester] | 56
COc1cc(C(=O)N2Cc3ccc(C(=O)N4CCN(C(C)C)CC4)n3Cc3ccccc32)ccc1-c1ccccc1C [Example 237, (4-isopropyl-1-piperazinyl){10-[(2-methoxy-2′-methyl[1,1′-biphenyl]-4-yl)carbonyl]-10,11-dihydro-5H-pyrrolo[2,1-c][1,4]benzodiazepin-3-yl}methanone] | 79
